Starred links: 1 amine or outer side, 2 acyl side, 3 side chain; linkers in the order of their positions; H or OH if unused. Positions of bridges follow the written chain, without caps; N, C: chain ends. Residues, ends and D or L forms follow the SMILES beside them. Chains are numbered I, II in the order given. X1 = c1cc(C[*:1])ccc1COCc1ccc(C[*:2])cc1
Target: T1, MYC/MAX complex (Homo sapiens, UniProt P01106)
T1 construct: we used recombinant MYC protein (MYC^353–437); His6 (N)
Assay: Fluorescence polarization direct binding to the MYC/MAX complex
Details: FP direct binding of fluorescein-labeled peptide to preformed MYC/MAX heterodimer; read-out: CHD^Max-1 Binding Affinity, Kd (MYC/MAX)
Protocol: pET151-D-TOPO-cMyc vector was kindly provided by Dr. Edward Prochownik from the
Department of Pediatrics at UPMC Children’s Hospital of Pittsburgh. Expression and purification
of Myc353-437 were performed using an established protocol with minor modifications.7 BL21(DE3)
cells were used to express recombinant Myc353-437 protein. Bacteria were grown at 37 °C to OD600
of 0.8 followed by 1 mM IPTG induction and 16-18h growth at RT. Cells were harvested via
centrifugation at 4,000 rpm at 4 °C and the pellet was resuspended in 10 mL of lysis buffer (8 M
urea, 100 mM NaH2PO4, 10 mM Tris HCl, pH 8) supplemented with protease inhibitor cocktail
(PierceTM Protease Inhibitor Tablets) and benzonase nuclease. Suspensions were sonicated on
ice using a Branson Cell Disruptor 200 and centrifuged at 12,000 rpm for 45 min at 4 °C. Clarified
lysate was applied to a column containing pre-equilibrated HisPur Ni-NTA Superflow Agarose
(ThermoFisher Scientific) for overnight at 4 °C. The resin beads were washed with 10 mL of
additional lysis buffer followed by three washes of 10 mL wash buffer (8 M urea, 100 mM
NaH2PO4, 10 mM Tris HCl, 10 mM imidazole). The target protein was eluted with elution buffer (8 […]
Fluorescence Polarization Binding Assay […]
determined using fluorescence polarization-based direct binding assay. […]
from 10 μM into 15 nM of FITC-labeled peptide in assay buffer. KD was determined using the […]

T1 sequence (P01106 368-452): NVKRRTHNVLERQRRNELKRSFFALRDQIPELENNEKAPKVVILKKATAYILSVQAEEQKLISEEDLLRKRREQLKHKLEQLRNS
T1 sequence (P61244 whole entry partner): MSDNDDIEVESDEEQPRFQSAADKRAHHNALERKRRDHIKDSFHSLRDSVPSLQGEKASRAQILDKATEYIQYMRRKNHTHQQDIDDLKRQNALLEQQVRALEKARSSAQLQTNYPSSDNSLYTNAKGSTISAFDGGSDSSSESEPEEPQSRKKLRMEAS

## CC[C@H](C)[C@H](NC(=O)[C@H](CCCCN)NC(=O)[C@H](CCC(=O)O)NC(=O)[C@H](CCCNC(=N)N)NC(=O)[C@H](CC(C)C)NC(C)=O)C(=O)N[C@@H](C)C(=O)N[C@H](C(=O)N[C@@H](CC(C)C)C(=O)N[C@@H](CCC(N)=O)C(=O)N[C@@H](Cc1c[nH]c2ccccc12)C(=O)N[C@@H](CSCc1ccc(COCc2ccc(CSC[C@H](NC(=O)[C@H](CC(C)C)NC(=O)[C@H](CCC(=O)O)NC(=O)[C@H](CCC(=O)O)NC(=O)[C@@H](NC(=O)[C@H](CCC(=O)O)NC(=O)[C@H](Cc3c[nH]c4ccccc34)NC(=O)[C@H](CCC(N)=O)NC(=O)[C@H](Cc3c[nH]cn3)NC(=O)[C@@H](NC(=O)[C@H](CCC(=O)O)NC(=O)[C@H](CC(N)=O)NC(=O)[C@H](CCCCN)NC(=O)[C@H](CCCNC(=N)N)NC(=O)[C@H](CCCNC(=N)N)NC(=O)[C@H](CC(C)C)NC(C)=O)[C@@H](C)O)[C@@H](C)CC)C(N)=O)cc2)cc1)C(=O)N[C@H](C(=O)N[C@@H](CCC(=O)O)C(=O)N[C@@H](CCC(=O)O)C(=O)N[C@@H](CC(C)C)C(=O)N[C@@H](CCCNC(=N)N)C(=O)N[C@@H](CCCCN)C(N)=O)[C@@H](C)CC)[C@@H](C)O [CHD^Max-1] (I: Ac-LREKIATLQWCIEELRK-NH2 / II: Ac-LRRKNETHQWEIEELC-NH2; linker I:11-II:16 via X1)
  Kd: 460 ± 150 nM
